# PubChem BioAssay (NCI)
#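 In this assay, cells in 96-well plates receive the compound at five concentrations for 48 hours. Endpoints are linearly interpolated between the surrounding concentrations. TGI marks complete inhibition of growth.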
# Experiments:
# Experiment in all cases: NCI-60 cell line screen, 48 h
# [1] = tested on: A498 renal
# [2] = tested on: A549 NSCLC
# [3] = tested on: ACHN renal
# [4] = tested on: BT-549 breast
# [5] = tested on: CAKI-1 renal
# [6] = tested on: CCRF-CEM leukemia
# [7] = tested on: COLO 205 colon
# [8] = tested on: DU-145 prostate
# [9] = tested on: EKVX NSCLC
# [10] = tested on: HCC-2998 colon
# [11] = tested on: HCT-15 colon
# [12] = tested on: HL-60(TB) leukemia
# [13] = tested on: HOP-62 NSCLC
# [14] = tested on: HOP-92 NSCLC
# [15] = tested on: HS 578T breast
# [16] = tested on: IGROV1 ovarian
# [17] = tested on: K-562 leukemia
# [18] = tested on: KM12 colon
# [19] = tested on: LOX IMVI melanoma
# [20] = tested on: M14 melanoma
# [21] = tested on: MALME-3M melanoma
# [22] = tested on: MCF7 breast
# [23] = tested on: MDA-MB-231 breast
# [24] = tested on: MDA-MB-435
# [25] = tested on: MDA-N
# [26] = tested on: NCI-H226 lung
# [27] = tested on: NCI-H23 lung
# [28] = tested on: NCI-H460 lung
# [29] = tested on: NCI-H522 lung
# [30] = tested on: NCI/ADR-RES ovarian
# [31] = tested on: OVCAR-3 ovarian
# [32] = tested on: OVCAR-5 ovarian
# [33] = tested on: OVCAR-8 ovarian
# [34] = tested on: PC-3 prostate
# [35] = tested on: RPMI-8226 leukemia
# [36] = tested on: RXF 393 renal
# [37] = tested on: SF-268 CNS
# [38] = tested on: SK-MEL-2 melanoma
# [39] = tested on: SK-MEL-28 melanoma
# [40] = tested on: SK-MEL-5 melanoma
# [41] = tested on: SN12C renal
# [42] = tested on: SNB-19 CNS
# [43] = tested on: SNB-75 CNS
# [44] = tested on: SR leukemia
# [45] = tested on: SW-620 colon
# [46] = tested on: T-47D breast
# [47] = tested on: TK-10 renal
# [48] = tested on: U251 CNS
# [49] = tested on: UACC-257 melanoma
# [50] = tested on: UO-31 renal
# [51] = tested on: 786-0 renal
# [52] = tested on: HCT-116 colon
# [53] = tested on: HT29 colon
# [54] = tested on: MOLT-4 leukemia
# [55] = tested on: OVCAR-4 ovarian
# [56] = tested on: SF-295 CNS
# [57] = tested on: SF-539 CNS
# [58] = tested on: SK-OV-3 ovarian
# [59] = tested on: UACC-62 melanoma
compound,measurement,setting,value
O=c1cnn(C/C=C/CO)c(=O)[nH]1,TGI,[1],> 100 µM
same,TGI,[2],> 100 µM
same,TGI,[3],> 100 µM
same,TGI,[4],> 100 µM
same,TGI,[5],> 100 µM
same,TGI,[6],> 100 µM
same,TGI,[7],> 100 µM
same,TGI,[8],> 100 µM
same,TGI,[9],> 100 µM
same,TGI,[10],> 100 µM
same,TGI,[11],> 100 µM
same,TGI,[12],> 100 µM
same,TGI,[13],> 100 µM
same,TGI,[14],> 100 µM
same,TGI,[15],> 100 µM
same,TGI,[16],> 100 µM
same,TGI,[17],> 100 µM
same,TGI,[18],> 100 µM
same,TGI,[19],86 µM
same,TGI,[20],> 100 µM
same,TGI,[21],> 100 µM
same,TGI,[22],> 100 µM
same,TGI,[23],> 100 µM
same,TGI,[24],> 100 µM
same,TGI,[25],> 100 µM
same,TGI,[26],> 100 µM
same,TGI,[27],> 100 µM
same,TGI,[28],> 100 µM
same,TGI,[29],> 100 µM
same,TGI,[30],> 100 µM
same,TGI,[31],> 100 µM
same,TGI,[32],> 100 µM
same,TGI,[33],> 100 µM
same,TGI,[34],> 100 µM
same,TGI,[35],> 100 µM
same,TGI,[36],> 100 µM
same,TGI,[37],> 100 µM
same,TGI,[38],> 100 µM
same,TGI,[39],> 100 µM
same,TGI,[40],> 100 µM
same,TGI,[41],> 100 µM
same,TGI,[42],> 100 µM
same,TGI,[43],> 100 µM
same,TGI,[44],> 100 µM
same,TGI,[45],> 100 µM
same,TGI,[46],> 100 µM
same,TGI,[47],> 100 µM
same,TGI,[48],> 100 µM
same,TGI,[49],> 100 µM
same,TGI,[50],> 100 µM
CCOC(=O)c1nnc2c(C(=O)OCC)c3ccccc3n2c1N,TGI,[51],> 100 µM
same,TGI,[1],60.8 µM
same,TGI,[2],> 100 µM
same,TGI,[3],> 100 µM
same,TGI,[4],> 100 µM
same,TGI,[5],> 100 µM
same,TGI,[7],49.6 µM
same,TGI,[8],> 100 µM
same,TGI,[9],> 100 µM
same,TGI,[10],> 100 µM
same,TGI,[52],> 100 µM
same,TGI,[11],> 100 µM
same,TGI,[12],5.52 µM
same,TGI,[13],> 100 µM
same,TGI,[15],> 100 µM
same,TGI,[53],> 100 µM
same,TGI,[16],38.2 µM
same,TGI,[17],> 100 µM
same,TGI,[18],66.8 µM
same,TGI,[19],> 100 µM
same,TGI,[20],> 100 µM
same,TGI,[21],7.57 µM
same,TGI,[22],> 100 µM
same,TGI,[23],87.8 µM
same,TGI,[24],> 100 µM
same,TGI,[25],> 100 µM
same,TGI,[54],> 100 µM
same,TGI,[27],> 100 µM
same,TGI,[28],> 100 µM
same,TGI,[29],> 100 µM
same,TGI,[30],43.6 µM
same,TGI,[31],> 100 µM
same,TGI,[55],> 100 µM
same,TGI,[32],> 100 µM
same,TGI,[33],> 100 µM
same,TGI,[34],> 100 µM
same,TGI,[35],6.39 µM
same,TGI,[36],> 100 µM
same,TGI,[37],> 100 µM
same,TGI,[56],> 100 µM
same,TGI,[57],> 100 µM
same,TGI,[38],> 100 µM
same,TGI,[39],> 100 µM
same,TGI,[40],51.8 µM
same,TGI,[58],91.8 µM
same,TGI,[41],81.6 µM
same,TGI,[42],> 100 µM
same,TGI,[43],67.3 µM
same,TGI,[44],> 100 µM
same,TGI,[45],> 100 µM
same,TGI,[46],> 100 µM
same,TGI,[47],> 100 µM
same,TGI,[48],> 100 µM
same,TGI,[49],11.1 µM
same,TGI,[59],9.25 µM
same,TGI,[50],> 100 µM
